Measurements taken from patent publication US11306092B2, “Amino indole compounds useful as TLR inhibitors” (BRISTOL-MYERS SQUIBB COMPANY, priority 2017, dated 2022).

Tests used:
Assay type in all cases: cell-based
[1] = molecular target: T1, human TLR7 (Homo sapiens, UniProt Q9NYK1); assay: TLR7 inhibition reporter assay (HEK-Blue SEAP reporter); details: HEK-Blue cells overexpressing human TLR7; gardiquimod 7.5 μM; 22 hour incubation
T1 construct: host or cells: HEK-Blue cells
T1 sequence (Q9NYK1 27-1049): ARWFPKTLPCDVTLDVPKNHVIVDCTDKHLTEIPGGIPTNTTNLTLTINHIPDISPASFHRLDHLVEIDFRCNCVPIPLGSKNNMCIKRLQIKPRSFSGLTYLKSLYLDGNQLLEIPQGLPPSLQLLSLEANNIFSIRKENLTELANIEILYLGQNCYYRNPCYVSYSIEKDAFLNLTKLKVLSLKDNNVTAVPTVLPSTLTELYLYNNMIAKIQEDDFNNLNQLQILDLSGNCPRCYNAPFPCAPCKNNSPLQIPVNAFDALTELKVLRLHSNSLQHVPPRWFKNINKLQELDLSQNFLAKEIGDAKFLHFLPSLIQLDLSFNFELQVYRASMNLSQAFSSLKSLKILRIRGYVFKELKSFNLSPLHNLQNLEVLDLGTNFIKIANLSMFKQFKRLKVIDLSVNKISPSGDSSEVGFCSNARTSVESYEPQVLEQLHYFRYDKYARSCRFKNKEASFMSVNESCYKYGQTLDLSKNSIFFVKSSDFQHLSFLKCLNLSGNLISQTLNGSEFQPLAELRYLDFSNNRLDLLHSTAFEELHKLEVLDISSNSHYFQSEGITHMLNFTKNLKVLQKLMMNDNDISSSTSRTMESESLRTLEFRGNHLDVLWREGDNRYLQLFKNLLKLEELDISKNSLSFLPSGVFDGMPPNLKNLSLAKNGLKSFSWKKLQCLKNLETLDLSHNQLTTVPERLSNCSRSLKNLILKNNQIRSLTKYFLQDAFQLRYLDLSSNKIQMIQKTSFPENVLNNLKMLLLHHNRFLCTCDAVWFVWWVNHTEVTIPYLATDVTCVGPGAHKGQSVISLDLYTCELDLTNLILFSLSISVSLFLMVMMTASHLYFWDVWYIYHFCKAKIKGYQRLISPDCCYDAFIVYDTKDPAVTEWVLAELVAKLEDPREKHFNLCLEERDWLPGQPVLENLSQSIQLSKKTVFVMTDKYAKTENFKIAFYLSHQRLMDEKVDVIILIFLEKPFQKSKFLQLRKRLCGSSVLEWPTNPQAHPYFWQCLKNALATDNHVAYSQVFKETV
Summary of the method: (§1)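 Screening used HEK-Blue cells overexpressing one human TLR (7, 8 or 9) and an IFN-β minimal promoter–NF-κB/AP-1 SEAP construct. Stimulation lasted 22 h at 37 °C with receptor-specific agonist: gardiquimod, R848 or ODN2006 at 7.5 μM, 15.9 μM and 5 nM.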

[2] = molecular target: T2, human TLR8 (Homo sapiens, UniProt Q9NR97); assay: TLR8 inhibition reporter assay (HEK-Blue SEAP reporter); details: HEK-Blue cells overexpressing human TLR8; R848 15.9 μM; 22 hour incubation
T2 construct: host or cells: HEK-Blue cells
T2 sequence (Q9NR97 27-1041): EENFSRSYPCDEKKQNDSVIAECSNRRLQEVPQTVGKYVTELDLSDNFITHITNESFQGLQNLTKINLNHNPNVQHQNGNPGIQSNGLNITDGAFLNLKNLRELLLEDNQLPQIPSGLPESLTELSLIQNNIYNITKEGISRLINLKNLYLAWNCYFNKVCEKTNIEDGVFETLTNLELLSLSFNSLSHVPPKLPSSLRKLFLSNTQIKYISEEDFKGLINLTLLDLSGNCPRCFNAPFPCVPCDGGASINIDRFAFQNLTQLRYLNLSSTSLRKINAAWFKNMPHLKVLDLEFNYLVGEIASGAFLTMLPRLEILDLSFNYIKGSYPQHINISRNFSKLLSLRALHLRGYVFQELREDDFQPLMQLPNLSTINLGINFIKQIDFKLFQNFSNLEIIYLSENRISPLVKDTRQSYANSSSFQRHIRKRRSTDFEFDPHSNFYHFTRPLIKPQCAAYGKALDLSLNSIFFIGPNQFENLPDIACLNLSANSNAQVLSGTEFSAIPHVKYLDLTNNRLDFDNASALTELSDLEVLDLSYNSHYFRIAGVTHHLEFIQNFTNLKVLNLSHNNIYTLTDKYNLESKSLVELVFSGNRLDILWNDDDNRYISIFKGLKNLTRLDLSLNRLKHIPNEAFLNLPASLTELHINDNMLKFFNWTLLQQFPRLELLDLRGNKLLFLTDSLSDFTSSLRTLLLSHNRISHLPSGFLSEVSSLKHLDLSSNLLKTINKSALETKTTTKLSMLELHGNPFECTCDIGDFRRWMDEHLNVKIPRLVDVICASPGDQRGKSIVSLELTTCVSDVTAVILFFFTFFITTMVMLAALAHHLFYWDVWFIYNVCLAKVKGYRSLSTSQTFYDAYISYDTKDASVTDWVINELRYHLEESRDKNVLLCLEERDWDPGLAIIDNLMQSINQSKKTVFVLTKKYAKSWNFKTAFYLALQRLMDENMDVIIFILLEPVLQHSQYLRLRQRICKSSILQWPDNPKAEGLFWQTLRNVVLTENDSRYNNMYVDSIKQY
Summary of the method: as §1

[3] = molecular target: T3, human TLR9 (Homo sapiens, UniProt Q9NR96); assay: TLR9 inhibition reporter assay (HEK-Blue SEAP reporter); details: HEK-Blue cells overexpressing human TLR9; ODN2006 5 nM; 22 hour incubation
T3 construct: host or cells: HEK-Blue cells
T3 sequence (Q9NR96 26-1032): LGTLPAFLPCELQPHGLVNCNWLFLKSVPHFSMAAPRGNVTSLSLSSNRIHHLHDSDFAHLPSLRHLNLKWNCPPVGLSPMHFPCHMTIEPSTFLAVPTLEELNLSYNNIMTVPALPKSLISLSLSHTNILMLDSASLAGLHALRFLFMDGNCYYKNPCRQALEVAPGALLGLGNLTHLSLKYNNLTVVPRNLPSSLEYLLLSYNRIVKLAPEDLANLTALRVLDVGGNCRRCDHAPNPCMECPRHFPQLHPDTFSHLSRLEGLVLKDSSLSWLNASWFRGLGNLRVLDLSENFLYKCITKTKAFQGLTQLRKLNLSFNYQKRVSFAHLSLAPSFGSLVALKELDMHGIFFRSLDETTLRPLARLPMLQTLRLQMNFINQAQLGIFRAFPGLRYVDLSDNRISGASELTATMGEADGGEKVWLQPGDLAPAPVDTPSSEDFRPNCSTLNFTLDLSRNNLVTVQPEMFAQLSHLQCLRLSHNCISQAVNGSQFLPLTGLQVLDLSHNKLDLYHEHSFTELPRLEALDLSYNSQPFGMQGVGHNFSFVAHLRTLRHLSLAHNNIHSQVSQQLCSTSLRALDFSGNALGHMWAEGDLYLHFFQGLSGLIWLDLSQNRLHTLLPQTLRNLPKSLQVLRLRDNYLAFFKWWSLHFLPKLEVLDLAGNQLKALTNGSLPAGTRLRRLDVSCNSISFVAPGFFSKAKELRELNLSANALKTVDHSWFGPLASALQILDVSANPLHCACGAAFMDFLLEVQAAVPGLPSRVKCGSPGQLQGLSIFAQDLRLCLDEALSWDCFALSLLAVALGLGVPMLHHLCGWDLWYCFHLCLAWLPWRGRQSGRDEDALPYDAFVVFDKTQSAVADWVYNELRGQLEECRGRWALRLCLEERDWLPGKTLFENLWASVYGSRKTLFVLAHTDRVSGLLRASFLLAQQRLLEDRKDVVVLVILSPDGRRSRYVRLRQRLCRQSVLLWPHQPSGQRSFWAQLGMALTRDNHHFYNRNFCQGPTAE
Summary of the method: as §1

CCc1c(-c2ccc(OC)c(OC)c2)[nH]c2ccc(N3CCN(C4CCN(CC)CC4)CC3)cc12 [Example 163, 2-(3,4-dimethoxyphenyl)-3-ethyl-5-(4-(1-ethylpiperidin-4-yl)piperazin-1-yl)-1H-indole]
IC50 [1]: 68 nM
IC50 [2]: 9.3 nM
IC50 [3]: 709 nM

CCc1c(-c2ccnc3c2ccn3C)[nH]c2ccc(N3CCN(C4CCN(C(C)C)CC4)CC3)cc12 [Example 165, 4-(3-ethyl-5-(4-(1-isopropylpiperidin-4-yl)piperazin-1-yl)-1H-indol-2-yl)-1-methyl-H-pyrrolo[2,3-b] pyridine]
IC50 [1]: 5900 nM
IC50 [2]: 9400 nM
IC50 [3]: 685 nM

CCN1CCN(C2CCN(c3ccc4[nH]c(-c5ccc(OC)c(OC)c5)c(C(C)C)c4c3)CC2)CC1 [Example 78, 2-(3,4-dimethoxyphenyl)-5-(4-(4-ethylpiperazin-1-yl)piperidin-1-yl)-3-isopropyl-1H-indole]
IC50 [1]: 50 nM
IC50 [2]: 14 nM
IC50 [3]: 929 nM

C#CCCCN1CCN(c2ccc3[nH]c(-c4ccc(OC)c(OC)c4)c(C(C)C)c3c2)CC1 [Example 146, 2-(3,4-dimethoxyphenyl)-3-isopropyl-5-(4-(pent-4-yn-1-yl)piperazin-1-yl)-1H-indole]
IC50 [1]: 206 nM
IC50 [2]: 12 nM
IC50 [3]: 1950 nM

COc1ccc(-c2[nH]c3ccc(N4CCC(C5CCN(CCC(F)(F)F)CC5)CC4)cc3c2C(C)C)cc1OC [Example 97, 2-(3,4-dimethoxyphenyl)-3-isopropyl-5-(1′-(3,3,3-trifluoropropyl)-[4,4′-bipiperidin]-1-yl)-1H-indole]
IC50 [1]: 862 nM
IC50 [2]: 1910 nM
IC50 [3]: 6610 nM

Cc1cc(-c2[nH]c3ccc(N4CCC(N5CCN(C(C)C)CC5)C4=O)cc3c2C(C)C)cc(C)n1 (single isomer, unassigned) [Example 6, 1-(2-(2,6-dimethylpyridin-4-yl)-3-isopropyl-1H-indol-5-yl)-3-(4-isopropylpiperazin-1-yl) pyrrolidin-2-one]
IC50 [1]: 3.9 nM
IC50 [2]: 4.9 nM
IC50 [3]: 1020 nM

COc1ccc(-c2[nH]c3ccc(N4CCN(C5CCN(C)CC5)CC4)cc3c2C)cc1OC [Example 149, 2-(3,4-dimethoxyphenyl)-3-methyl-5-(4-(1-methylpiperidin-4-yl)piperazin-1-yl)-1H-indole]
IC50 [1]: 681 nM
IC50 [2]: 62 nM
IC50 [3]: 727 nM

COc1ccc(-c2[nH]c3ccc(NC(=O)C4CNCCO4)cc3c2C(C)C)cc1OC (stereo not drawn) [Example 15, N-(2-(3,4-dimethoxyphenyl)-3-isopropyl-1H-indol-5-yl)morpholine-2-carboxamide]
IC50 [1]: 25 nM
IC50 [2]: 3.4 nM
IC50 [3]: 7460 nM

CCc1c(-c2ccnc(OC)c2)[nH]c2ccc(N3CCN(C4CCN(C(C)C)CC4)CC3)cc12 [Example 153, 3-ethyl-5-(4-(1-isopropylpiperidin-4-yl)piperazin-1-yl)-2-(2-methoxypyridin-4-yl)-1H-indole]
IC50 [1]: 83 nM
IC50 [2]: 11 nM
IC50 [3]: 755 nM

Cc1c(-c2ccnc3[nH]ccc23)[nH]c2ccc(N3CCN(C4CCN(C(C)C)CC4)CC3)cc12 [Example 151, 4-(5-(4-(1-isopropylpiperidin-4-yl)piperazin-1-yl)-3-methyl-1H-indol-2-yl)-1H-pyrrolo[2,3-b]pyridine]
IC50 [1]: 4230 nM
IC50 [2]: 47500 nM
IC50 [3]: 327 nM

COc1ccc(-c2[nH]c3ccc(N4CCN(C5CCN(C)CC5)CC4)cc3c2C(C)C)cc1OC [Example 162, 2-(3,4-dimethoxyphenyl)-3-isopropyl-5-(4-(1-methylpiperidin-4-yl)piperazin-1-yl)-1H-indole]
IC50 [1]: 30 nM
IC50 [2]: 7.9 nM
IC50 [3]: 935 nM

COc1ccc(-c2[nH]c3ccc(N4CC5(CCCNC5)C4)cc3c2C(C)C)cc1OC [Example 136, 2-(2-(3,4-dimethoxyphenyl)-3-isopropyl-H-indol-5-yl)-2,6-diazaspiro[3.5]nonane]
IC50 [1]: 542 nM
IC50 [2]: 35 nM
IC50 [3]: 2650 nM
